Read-outs that look alike come from different tables or passages of the source.

The test system of one experiment is aphids, Myzus persicae. Briefly: Potter tower spray on aphids, knockdown and mortality. As to conditions: for pest or weed control at 0.000125 % strength / pest or weed control at 0.00025 % strength / pest or weed control at 0.0005 % strength / pest or weed control at 0.001 % strength / pest or weed control at 0.002 % strength / pest or weed control at 0.003125 % strength / pest or weed control at 0.00625 % strength / pest or weed control at 0.0125 % strength / pest or weed control at 0.025 % strength / pest or weed control at 0.05 % strength: Myzus persicae, read-out: Average of % corrected affected; for pest or weed control at 0.003125 % strength / pest or weed control at 0.00625 % strength / pest or weed control at 0.0125 % strength / pest or weed control at 0.025 % strength / pest or weed control at 0.05 % strength: Aphids; for pest or weed control at 0.003125 % strength: 0.003125 % w/v; for pest or weed control at 0.00625 % strength: 0.00625 % w/v; for pest or weed control at 0.0125 % strength: 0.0125 % w/v; for pest or weed control at 0.025 % strength: 0.025 % w/v; for pest or weed control at 0.05 % strength: 0.05 % w/v. It is filed as in vivo. An excerpt: The compounds were screened for insecticidal efficacy against aphids, Myzus persicae, Cabbage moth, Mamestra brassicae, diamond black moths, Plutella xylostella, red spider mites, Tetranychus urticae, whitefly, Trialeurodes vaporariorum, in terms of knockdown and mortality.
(§1) Myzus persicae, Cabbage moth, Mamestra brassicae, diamond back moths, Plutella xylostella, red spider mites, Tetranychus urticae, whitefly, Trialeurodes vaporariorum, were obtained from specified laboratory cultures. Mixed sex and age aphids and mites, moth larvae and whitefly scale infested leaves were used in the experiments. Environmental conditions were closely monitored and recorded and were within the optimal range of the target species.
(§2) The compounds were screened at a range of five concentrations, diluted in DMSO. Some of the compounds were screened against aphids, whitefly and red spider mites and other compounds were screened against cabbage moth, and diamond black moths. A carrier only and an untreated control will also be conducted. Treatments were applied directly onto the insects within Petri dishes, using a potter tower.
(§3) Twenty mites and ten aphids, scales and moth larvae were placed within a Petri dish, lined with a suitable leaf disc on a damp cotton wool pad. Scales were already on leaves. The Petri dishes were then sprayed using a potter tower. The number of knocked down and anthropods were assessed at 24 and 48 hours post treatment. Five replicates were be performed for each treatment, for each species.
(§4) For Tables 2, 4, 5 and 6, the compounds were diluted in DMSO containing 1% v/v Tween 20™. For Tables 2, 4, 5 and 6, the caterpillars were a mixture of Mamestra brassicae and Lacanobia oleracea.

For experiment [1], the system named is caterpillars, a mixture of Mamestra brassicae and Lacanobia oleracea. Briefly: Potter tower spray on caterpillars, knockdown and mortality. The format is in vivo. As to conditions: for pest or weed control at 0.000125 % strength / pest or weed control at 0.00025 % strength / pest or weed control at 0.0005 % strength / pest or weed control at 0.001 % strength / pest or weed control at 0.002 % strength / pest or weed control at 0.003125 % strength / pest or weed control at 0.00625 % strength / pest or weed control at 0.0125 % strength / pest or weed control at 0.025 % strength / pest or weed control at 0.05 % strength: read-out: Average of % corrected affected; for pest or weed control at 0.003125 % strength / pest or weed control at 0.00625 % strength / pest or weed control at 0.0125 % strength / pest or weed control at 0.025 % strength / pest or weed control at 0.05 % strength: Caterpillars; for pest or weed control at 0.003125 % strength: 0.003125 % w/v; for pest or weed control at 0.00625 % strength: 0.00625 % w/v; for pest or weed control at 0.0125 % strength: 0.0125 % w/v; for pest or weed control at 0.025 % strength: 0.025 % w/v; for pest or weed control at 0.05 % strength: 0.05 % w/v.
Source text: as §1, §2, §3, §4

The mark [2] stands for this setting: 24 h, 24 hours post application.
The mark [3] stands for this setting: 48 h, 48 hours post application.

Take `O=C(CSc1ccc(C2=NOC(c3cc(Cl)cc(Cl)c3)(C(F)(F)F)C2)s1)NCC(F)(F)F` (stereo not shown) [Compound 19, 2-[[5-[5-(3,5-dichlorophenyl)-5-(trifluoromethyl)-4H-isoxazol-3-yl]-2-thienyl]sulfanyl]-N-(2,2,2-trifluoroethyl)acetamide]: in the experiment on aphids, Myzus persicae (24 h), the pest or weed control at 0.000125 % strength is 20 to 39%, the pest or weed control at 0.00025 % strength is 1 to 19%, the pest or weed control at 0.0005 % strength lay in the range of 1 to 19% and the pest or weed control at 0.001 % strength lay in the range of 20 to 39%. Also, the pest or weed control at 0.002 % strength in the experiment on aphids, Myzus persicae (24 h) fell in the range of 1 to 19%. For the same compound, in the experiment with aphids, Myzus persicae (48 h), the pest or weed control at 0.000125 % strength lay in the range of 40 to 59%, the pest or weed control at 0.00025 % strength was 20 to 39%, the pest or weed control at 0.0005 % strength fell in the range of 20 to 39% and the pest or weed control at 0.001 % strength was 40 to 59%. For the same compound, in the experiment with aphids, Myzus persicae (48 h), the pest or weed control at 0.002 % strength lay in the range of 1 to 19%. For the same compound, in experiment [1] (24 h), the pest or weed control at 0.000125 % strength was found to be 0%, the pest or weed control at 0.00025 % strength was found to be 0%, the pest or weed control at 0.0005 % strength is 1 to 19% and the pest or weed control at 0.001 % strength fell in the range of 1 to 19%. Besides, the pest or weed control at 0.002 % strength in experiment [1] (24 h) was 1 to 19%. Also, in experiment [1] (48 h), the pest or weed control at 0.000125 % strength was 1 to 19%, the pest or weed control at 0.00025 % strength lay within 1 to 19%, the pest or weed control at 0.0005 % strength fell in the range of 1 to 19% and the pest or weed control at 0.001 % strength lay in the range of 1 to 19%. The pest or weed control at 0.002 % strength in experiment [1] (48 h) was 1 to 19%.
Turning to `Cc1cc(C2=NOC(c3cc(Cl)cc(Cl)c3)(C(F)(F)F)C2)sc1SCC(=O)NCC(F)(F)F` (stereo not shown) [Compound 20, 2-[[5-[5-(3,5-dichlorophenyl)-5-(trifluoromethyl)-4H-isoxazol-3-yl]-3-methyl-2-thienyl]sulfanyl]-N-(2,2,2-trifluoroethyl)acetamide], in the experiment on aphids, Myzus persicae (0.002% concentration), the “control over aphids compared with reference compound 15” value is given as “more control”. Besides, in the experiment with aphids, Myzus persicae (24 h), the pest or weed control at 0.000125 % strength is 1 to 19%, the pest or weed control at 0.00025 % strength lay within 1 to 19%, the pest or weed control at 0.0005 % strength was in the range of 1 to 19% and the pest or weed control at 0.001 % strength lay in the range of 1 to 19%. For the same compound, the pest or weed control at 0.002 % strength in the experiment with aphids, Myzus persicae (24 h) lay within 1 to 19%. In the experiment with aphids, Myzus persicae (48 h), the pest or weed control at 0.000125 % strength was 1 to 19%, the pest or weed control at 0.00025 % strength lay in the range of 1 to 19%, the pest or weed control at 0.0005 % strength fell in the range of 1 to 19% and the pest or weed control at 0.001 % strength is 1 to 19%. Besides, the pest or weed control at 0.002 % strength in the experiment with aphids, Myzus persicae (48 h) lay within 20 to 39%. Also, in experiment [1] (0.002% concentration), the “control over caterpillars compared with reference compound 15” value was “more control”. Moreover, in experiment [1] (24 h), the pest or weed control at 0.000125 % strength was 1 to 19%, the pest or weed control at 0.00025 % strength is 1 to 19%, the pest or weed control at 0.0005 % strength lay in the range of 1 to 19% and the pest or weed control at 0.001 % strength lay in the range of 1 to 19%. Moreover, the pest or weed control at 0.002 % strength in experiment [1] (24 h) lay within 20 to 39%. Further, in experiment [1] (48 h), the pest or weed control at 0.000125 % strength fell in the range of 1 to 19%, the pest or weed control at 0.00025 % strength was in the range of 1 to 19%, the pest or weed control at 0.0005 % strength was 1 to 19% and the pest or weed control at 0.001 % strength lay within 1 to 19%. Besides, the pest or weed control at 0.002 % strength in experiment [1] (48 h) was 20 to 39%.
For the compound `Cc1cc(C2=NOC(c3cc(Cl)cc(Cl)c3)(C(F)(F)F)C2)ccc1SC1CCNC1=O` (stereo not shown) [Compound 21, 3-[4-[5-(3,5-dichlorophenyl)-5-(trifluoromethyl)-4H-isoxazol-3-yl]-2-methyl-phenyl]sulfanylpyrrolidin-2-one], in the experiment with aphids, Myzus persicae (24 h), the pest or weed control at 0.000125 % strength lay within 20 to 39%, the pest or weed control at 0.00025 % strength is 1 to 19%, the pest or weed control at 0.0005 % strength was in the range of 1 to 19% and the pest or weed control at 0.001 % strength fell in the range of 1 to 19%. Moreover, in the experiment on aphids, Myzus persicae (24 h), the pest or weed control at 0.002 % strength lay in the range of 1 to 19%. In the experiment with aphids, Myzus persicae (48 h), the pest or weed control at 0.000125 % strength was in the range of 20 to 39%, the pest or weed control at 0.00025 % strength lay in the range of 1 to 19%, the pest or weed control at 0.0005 % strength lay in the range of 1 to 19% and the pest or weed control at 0.001 % strength was 1 to 19%. Moreover, the pest or weed control at 0.002 % strength in the experiment with aphids, Myzus persicae (48 h) lay in the range of 20 to 39%. Further, in experiment [1] (24 h), the pest or weed control at 0.000125 % strength is 1 to 19%, the pest or weed control at 0.00025 % strength was in the range of 1 to 19%, the pest or weed control at 0.0005 % strength amounted to 0% and the pest or weed control at 0.001 % strength lay within 1 to 19%. In experiment [1] (24 h), the pest or weed control at 0.002 % strength lay within 1 to 19%. In addition, in experiment [1] (48 h), the pest or weed control at 0.000125 % strength was in the range of 1 to 19%, the pest or weed control at 0.00025 % strength was in the range of 1 to 19%, the pest or weed control at 0.0005 % strength fell in the range of 1 to 19% and the pest or weed control at 0.001 % strength fell in the range of 1 to 19%. Further, the pest or weed control at 0.002 % strength in experiment [1] (48 h) lay in the range of 1 to 19%.
For the compound `O=C(Nc1ccc(-c2cccnc2)oc1=O)C1CC1` [Compound 25, N-[2-Oxo-6-(3-pyridyl)pyran-3-yl]cyclopropanecarboxamide, reference compound], in the experiment with aphids, Myzus persicae (setting [2]), the pest or weed control at 0.003125 % strength was in the range of 1 to 19%, the pest or weed control at 0.00625 % strength was 20 to 39%, the pest or weed control at 0.0125 % strength lay within 20 to 39% and the pest or weed control at 0.025 % strength lay within 40 to 59%. The pest or weed control at 0.05 % strength with aphids, Myzus persicae (setting [2]) lay in the range of 1 to 19%. Besides, in the experiment with aphids, Myzus persicae (setting [3]), the pest or weed control at 0.003125 % strength was 1 to 19%, the pest or weed control at 0.00625 % strength was in the range of 20 to 39%, the pest or weed control at 0.0125 % strength lay within 20 to 39% and the pest or weed control at 0.025 % strength lay in the range of 60 to 79%. Besides, the pest or weed control at 0.05 % strength in the experiment on aphids, Myzus persicae (setting [3]) lay in the range of 40 to 59%. Further, in experiment [1] (setting [2]), the pest or weed control at 0.003125 % strength was 0%, the pest or weed control at 0.00625 % strength lay within 1 to 19%, the pest or weed control at 0.0125 % strength was in the range of 1 to 19% and the pest or weed control at 0.025 % strength fell in the range of 1 to 19%. Besides, in experiment [1] (setting [2]), the pest or weed control at 0.05 % strength lay in the range of 1 to 19%. In experiment [1] (setting [3]), the pest or weed control at 0.003125 % strength was in the range of 1 to 19%, the pest or weed control at 0.00625 % strength was 1 to 19%, the pest or weed control at 0.0125 % strength is 1 to 19% and the pest or weed control at 0.025 % strength was 20 to 39%. The pest or weed control at 0.05 % strength in experiment [1] (setting [3]) lay within 1 to 19%.

For the origin of these results see US20160212997A1, “AGRICULTURAL CHEMICALS” (REDAG CROP PROTECTION LTD, priority 2013, published 2016).
